{
  "source": "patent US20070003615A1",
  "about": "“Nanoparticulate clopidogrel and aspirin combination formulations” (Elan Pharma International Limited, priority 2005, published 2007)",
  "origin": "cited, not measured here",
  "key": {"[1]": {"conditions": "dry air versus contact with moisture"}, "[2]": {"assay": "not given", "remark": "listed apart in the source"}, "[3]": {"conditions": "in vivo"}},
  "note": "Counter-ions that a name gives are not always drawn. Like-named read-outs stand apart in the source and are kept apart here.",
  "data": [
    {"smiles": "COC(=O)[C@H](c1ccccc1Cl)N1CCc2sccc2C1", "note": "[clopidogrel]", "values": [
      {"measurement": "solubility in water", "setting": "water, pH not stated", "value": "practically insoluble"}
    ]},
    {"smiles": "CC(=O)Oc1ccccc1C(=O)O", "note": "[Aspirin, 2-acetoxybenzoic acid]", "values": [
      {"measurement": "stability in air / moisture", "setting": "[1]", "value": "stable in dry air, but gradually hydrolyses in contact with moisture"}
    ]},
    {"smiles": "COC(=O)[C@H](c1ccccc1Cl)N1CCc2sccc2C1", "note": "[Clopidogrel bisulfate, methyl (+)-(S)-α-(2-chorophenyl)-6,7-dihydrothieno[3,2-c]pyridine-5(4H)-acetate sulfate (1:1)]", "values": [
      {"measurement": "solubility in ethyl ether", "setting": "ethyl ether", "value": "practically insoluble"},
      {"measurement": "solubility in methanol", "setting": "methanol", "value": "dissolves freely"},
      {"measurement": "solubility in methylene chloride", "setting": "methylene chloride", "value": "dissolves sparingly"},
      {"measurement": "solubility at pH 1.0", "setting": "pH 1.0", "value": "freely soluble"},
      {"measurement": "solubility in water", "setting": "water at neutral pH", "value": "practically insoluble"},
      {"measurement": "rate of combined end point of cardiovascular death, MI, or stroke (and with refractory ischemia)", "setting": "[2]; patients with acute coronary syndrome", "value": "decrease the rate"},
      {"measurement": "rate of combined end point of new ischemic stroke, new MI, and other vascular death", "setting": "[2]; recent MI, recent stroke, or established arterial disease", "value": "reduce the rate"},
      {"measurement": "gastric irritation (esophagus and stomach)", "setting": "[3]", "value": "significant gastric irritation"}
    ]}
  ]
}
